Data on one compound can be found in patent US8293280B2, “Method for treatment of HIV infection” (priority 2004, dated 2012).

For the assay, the system named is SIVmac239. The assay is classed as in vivo, rhesus macaques (Macaca mulatta).

Consider `C[C@H](Cn1cnc2c(N)ncnc21)OCP(=O)(O)O` [PMPA, 9-R-(2-phophorylmethoxypropyl) adenine], for which the “viral loads after termination of PMPA therapy” value (Group 2: no further treatment, Group 3: extract 3.3 NU/kg s.c. daily for 60 days, initiated 2 days prior to termination of PMPA) is given as “viral loads rebounded soon after the discontinuation of PMPA therapy”. For the same compound, where the note is “by day 28 of PMPA therapy, 30 mg/kg s.c. daily for 28 days, Groups 2 and 3”, the plasma viral loads was 100 to 1000 viral copies per mL.
